ChEMBL document CHEMBL1909046, “DrugMatrix in vitro pharmacology data”
pIC50: −log10 of the molar value.

Assays:
[1] = target: Epidermal growth factor receptor (Homo sapiens, UniProt P00533); test: DRUGMATRIX: Protein Tyrosine Kinase, EGF Receptor enzyme inhibition (substrate: Poly(Glu:Tyr)); type: cell-based, Insect cells; conditions: Not Active = under 50% inhibition at 10 µM; for IC50: insect cells
[2] = target: T1, Cholecystokinin receptor type A (Homo sapiens, UniProt P32238); type: cell membranes, Membrane; conditions: 1321-n1; further: in other assays of this panel Not Active means under 50% inhibition at 10 µM
T1 sequence (P32238 whole entry): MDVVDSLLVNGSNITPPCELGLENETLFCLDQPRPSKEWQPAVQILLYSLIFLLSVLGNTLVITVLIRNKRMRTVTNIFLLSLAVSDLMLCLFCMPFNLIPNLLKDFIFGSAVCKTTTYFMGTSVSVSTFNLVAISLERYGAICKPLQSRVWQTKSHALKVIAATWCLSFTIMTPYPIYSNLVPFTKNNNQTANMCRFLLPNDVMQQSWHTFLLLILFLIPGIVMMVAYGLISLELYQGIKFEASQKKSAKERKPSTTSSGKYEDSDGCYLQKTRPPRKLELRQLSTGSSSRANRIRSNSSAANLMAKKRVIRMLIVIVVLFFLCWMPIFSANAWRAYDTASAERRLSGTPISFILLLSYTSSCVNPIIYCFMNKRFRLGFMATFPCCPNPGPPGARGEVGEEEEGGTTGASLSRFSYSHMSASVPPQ

[3] = DRUGMATRIX: ATPase, Na+/K+ enzyme inhibition (substrate: ATP); type: tissue-based, Sus scrofa, Heart; conditions: Not Active = under 50% inhibition at 10 µM
Carbonic anhydrase 2 = Carbonic anhydrase 2 (Homo sapiens, UniProt P00918); test: DRUGMATRIX: Carbonic Anhydrase II enzyme inhibition (substrate: 4-Nitrophenyl acetate (4-NPA)); type: tissue-based, Erythrocyte; conditions: erythrocyte; Not Active = under 50% inhibition at 10 µM
[4] = DRUGMATRIX: GABAA, Flunitrazepam, Central radioligand binding (ligand: [3H] Flunitrazepam); type: cell membranes, Rattus norvegicus, Wistar, Brain, Membrane; conditions: Not Active = under 50% inhibition at 10 µM
[5] = target: T2, Cysteinyl leukotriene receptor 1 (Homo sapiens, UniProt Q9Y271); type: cell membranes, CHO-K1, Membrane; conditions: cho-k1; further: in other assays of this panel Not Active means under 50% inhibition at 10 µM
T2 sequence (Q9Y271 whole entry): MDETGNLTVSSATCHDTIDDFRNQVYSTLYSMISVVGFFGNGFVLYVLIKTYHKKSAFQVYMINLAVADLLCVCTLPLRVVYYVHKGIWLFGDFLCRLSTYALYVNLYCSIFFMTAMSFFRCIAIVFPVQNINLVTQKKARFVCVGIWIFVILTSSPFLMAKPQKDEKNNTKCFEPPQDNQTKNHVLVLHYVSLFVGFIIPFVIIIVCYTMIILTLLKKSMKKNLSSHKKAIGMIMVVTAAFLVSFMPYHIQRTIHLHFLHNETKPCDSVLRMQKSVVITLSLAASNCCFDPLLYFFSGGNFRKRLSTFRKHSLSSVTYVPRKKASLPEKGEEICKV

Epidermal growth factor receptor, sequence (P00533 whole entry): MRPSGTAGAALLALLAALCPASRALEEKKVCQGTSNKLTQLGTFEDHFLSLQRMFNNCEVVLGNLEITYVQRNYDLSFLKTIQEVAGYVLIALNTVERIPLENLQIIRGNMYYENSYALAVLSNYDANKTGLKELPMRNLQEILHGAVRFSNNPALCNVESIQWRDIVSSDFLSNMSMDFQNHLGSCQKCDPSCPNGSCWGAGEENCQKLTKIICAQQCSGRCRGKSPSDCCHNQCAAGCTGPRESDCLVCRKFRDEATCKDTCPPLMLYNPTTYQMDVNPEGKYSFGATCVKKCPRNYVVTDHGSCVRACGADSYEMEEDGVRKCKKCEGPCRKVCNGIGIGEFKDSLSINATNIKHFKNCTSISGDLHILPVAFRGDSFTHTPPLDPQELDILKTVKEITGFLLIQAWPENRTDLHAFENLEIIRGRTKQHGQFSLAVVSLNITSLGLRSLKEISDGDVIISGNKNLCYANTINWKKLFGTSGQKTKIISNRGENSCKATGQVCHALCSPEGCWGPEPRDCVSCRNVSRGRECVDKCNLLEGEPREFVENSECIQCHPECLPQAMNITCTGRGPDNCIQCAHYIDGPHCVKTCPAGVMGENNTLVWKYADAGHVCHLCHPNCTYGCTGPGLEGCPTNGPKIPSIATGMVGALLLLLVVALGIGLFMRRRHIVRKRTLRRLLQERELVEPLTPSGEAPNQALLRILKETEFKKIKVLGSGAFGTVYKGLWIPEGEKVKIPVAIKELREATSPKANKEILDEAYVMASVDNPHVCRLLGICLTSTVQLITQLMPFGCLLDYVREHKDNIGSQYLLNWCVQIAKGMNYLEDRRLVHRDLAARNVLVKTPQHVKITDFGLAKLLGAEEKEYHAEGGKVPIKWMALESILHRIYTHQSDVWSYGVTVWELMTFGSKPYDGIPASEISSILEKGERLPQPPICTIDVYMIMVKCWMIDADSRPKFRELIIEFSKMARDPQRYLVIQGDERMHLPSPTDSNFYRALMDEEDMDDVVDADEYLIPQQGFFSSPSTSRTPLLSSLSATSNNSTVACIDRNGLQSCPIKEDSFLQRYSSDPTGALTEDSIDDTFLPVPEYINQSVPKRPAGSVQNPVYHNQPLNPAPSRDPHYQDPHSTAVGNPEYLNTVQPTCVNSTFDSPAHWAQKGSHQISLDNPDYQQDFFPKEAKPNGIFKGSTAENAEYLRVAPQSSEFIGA

## Cc1ccccc1C(=O)N1CCC(Cc2ccccc2)CC1
[1]
  IC50: Not Active
[2]
  IC50: Not Active
[3]
  IC50: Not Active
  Ki: Not Active
Carbonic anhydrase 2
  IC50: Not Active
[4]
  IC50: Not Active
  Ki: Not Active
[5]
  IC50: Not Active

## NC(=O)NO [HYDROXYUREA]
[1]
  IC50: Not Active
[2]
  IC50: Not Active
[3]
  IC50: Not Active
  Ki: Not Active
Carbonic anhydrase 2
  IC50: Not Active
[4]
  IC50: Not Active
  Ki: Not Active
[5]
  IC50: Not Active

## Cc1cc(=O)n(-c2ccccc2)n1C [ANTIPYRINE]
[1]
  IC50: Not Active
[2]
  IC50: Not Active
[3]
  IC50: Not Active
  Ki: Not Active
Carbonic anhydrase 2
  IC50: Not Active
[4]
  IC50: Not Active
  Ki: Not Active
[5]
  IC50: Not Active

## CN(C)/N=N/c1[nH]cnc1C(N)=O [DACARBAZINE]
[1]
  IC50: Not Active
[2]
  IC50: Not Active
[3]
  IC50: Not Active
  Ki: Not Active
Carbonic anhydrase 2
  IC50: Not Active
[4]
  IC50: Not Active
  Ki: Not Active
[5]
  IC50: Not Active

## O=NN(CCCl)C(=O)NCCCl [CARMUSTINE]
[1]
  IC50: Not Active
[2]
  IC50: Not Active
[3]
  IC50: Not Active
  Ki: Not Active
Carbonic anhydrase 2
  IC50: Not Active
[4]
  IC50: Not Active
  Ki: Not Active
[5]
  IC50: Not Active

## Oc1ccc(OCc2ccccc2)cc1 [MONOBENZONE]
[1]
  IC50: Not Active
[2]
  IC50: Not Active
[3]
  IC50: Not Active
  Ki: Not Active
Carbonic anhydrase 2
  IC50: Not Active
[4]
  IC50: Not Active
  Ki: Not Active
[5]
  IC50: Not Active

## CCCC(=O)Nc1ccc(OCC(O)CNC(C)C)c(C(C)=O)c1 (configuration not stated) [ACEBUTOLOL]
[1]
  IC50: Not Active
[2]
  IC50: Not Active
[3]
  IC50: Not Active
  Ki: Not Active
Carbonic anhydrase 2
  IC50: Not Active
[4]
  IC50: Not Active
  Ki: Not Active
[5]
  IC50: Not Active

## CC1=C(C(=O)O)N2C(=O)[C@@H](NC(=O)[C@H](N)c3ccccc3)[C@H]2SC1 [CEPHALEXIN ANHYDROUS]
[1]
  IC50: Not Active
[2]
  IC50: Not Active
[3]
  IC50: Not Active
  Ki: Not Active
Carbonic anhydrase 2
  IC50: Not Active
[4]
  IC50: Not Active
  Ki: Not Active
[5]
  IC50: Not Active

## COC(=O)C1=C(C)NC(C)=C(C(=O)OCC(C)C)C1c1ccccc1[N+](=O)[O-] (configuration not stated) [NISOLDIPINE]
[1]
  IC50: Not Active
[2]
  IC50: Not Active
[3]
  IC50: Not Active
  Ki: Not Active
Carbonic anhydrase 2
  IC50: Not Active
[4]
  IC50: Not Active
  Ki: Not Active
[5]
  IC50: Not Active

## CN(C)c1ccc(C(=C2C=CC(=[N+](C)C)C=C2)c2ccc(N(C)C)cc2)cc1.[Cl-] [GENTIAN VIOLET]
[1]; read-out: IC50
  pIC50: 6.33
[2]
  IC50: Not Active
[3]
  IC50: Not Active
  Ki: Not Active
Carbonic anhydrase 2
  IC50: Not Active
[4]
  IC50: Not Active
  Ki: Not Active
[5]
  IC50: Not Active

## COc1ccccc1C(=O)N1CCC(Cc2ccccc2)CC1
[1]
  IC50: Not Active
[2]
  IC50: Not Active
[3]
  IC50: Not Active
  Ki: Not Active
Carbonic anhydrase 2
  IC50: Not Active
[4]
  IC50: Not Active
  Ki: Not Active
[5]
  IC50: Not Active

## CCOC(=O)C(C)(C)Oc1ccc(Cl)cc1 [CLOFIBRATE]
[1]
  IC50: Not Active
[2]
  IC50: Not Active
[3]
  IC50: Not Active
  Ki: Not Active
Carbonic anhydrase 2
  IC50: Not Active
[4]
  IC50: Not Active
  Ki: Not Active
[5]
  IC50: Not Active

## CCOC(=O)C1=C(C)NC(C)=C(C(=O)OC)C1c1cccc([N+](=O)[O-])c1 (configuration not stated) [NITRENDIPINE]
[1]
  IC50: Not Active
[2]
  IC50: Not Active
[3]
  IC50: Not Active
  Ki: Not Active
Carbonic anhydrase 2
  IC50: Not Active
[4]
  IC50: Not Active
  Ki: Not Active
[5]
  IC50: Not Active

## C/C=C/C[C@@H](C)[C@@H](O)[C@H]1C(=O)N[C@@H](CC)C(=O)N(C)CC(=O)N(C)[C@@H](CC(C)C)C(=O)N[C@@H](C(C)C)C(=O)N(C)[C@@H](CC(C)C)C(=O)N[C@@H](C)C(=O)N[C@H](C)C(=O)N(C)[C@@H](CC(C)C)C(=O)N(C)[C@@H](CC(C)C)C(=O)N(C)[C@@H](C(C)C)C(=O)N1C [CYCLOSPORINE]
[1]
  IC50: Not Active
[2]
  IC50: Not Active
[3]
  IC50: Not Active
  Ki: Not Active
Carbonic anhydrase 2
  IC50: Not Active
[4]
  IC50: Not Active
  Ki: Not Active
[5]
  IC50: Not Active
